How the values were obtained:
Type in all cases: biochemical
NNMT = test: Selectivity SAHH-coupled fluorescence assay, NNMT
Description: (§1) We chose the top four potent compounds (6b and 6l–n) to investigate their selectivities against several in-house methyltransferases including protein arginine methyltransferase TbPRMT7, two members of the protein lysine methyltransferase PKMT (G9a and SETD7), protein N-terminal methyltransferase 1 (NTMT1), and a small molecule methyltransferase nicotinamide N-methyltransferase (NNMT), all of which have a SAM binding site.
(§2) A fluorescence-based SAHH-coupled assay was applied to study the effect of the compound on methyltransferase activity of PRMT7, NTMT1, SETD7, G9a, NNMT, and SAHH. For PRMT7, the assay was performed in a final well volume of 100 μL: 25 mM Tris (pH = 7.5), 50 mM KCl, 0.01% Triton X-100, 5 μM SAHH, 0.2 μM PRMT7, 3 μM AdoMet, and 15 μM ThioGlo1. After incubation for 10 min with the inhibitor, reactions were initiated by the addition of 60 μM H4-21 peptide, and the reaction was monitored for 15 min. […] After incubation for 10 min with the inhibitor, reactions were initiated by the addition of 0.5 μM GPKRIA peptide, and the reaction was monitored for 15 min. […] After incubation for 10 min with the inhibitor, reactions were initiated by the addition of 90 μM H3-21 peptide, and the reaction was monitored for 15 min. […] After incubation for 10 min with the inhibitor, reactions were initiated by the addition of 10 μM nicotinamide, and the reaction was monitored for 18 min. […]

SETD7 = biological target: T1, SETD7 (Homo sapiens, UniProt Q8WTS6); test: Selectivity SAHH-coupled fluorescence assay, SETD7
T1 construct: made in house
T1 sequence (Q8WTS6 1-366): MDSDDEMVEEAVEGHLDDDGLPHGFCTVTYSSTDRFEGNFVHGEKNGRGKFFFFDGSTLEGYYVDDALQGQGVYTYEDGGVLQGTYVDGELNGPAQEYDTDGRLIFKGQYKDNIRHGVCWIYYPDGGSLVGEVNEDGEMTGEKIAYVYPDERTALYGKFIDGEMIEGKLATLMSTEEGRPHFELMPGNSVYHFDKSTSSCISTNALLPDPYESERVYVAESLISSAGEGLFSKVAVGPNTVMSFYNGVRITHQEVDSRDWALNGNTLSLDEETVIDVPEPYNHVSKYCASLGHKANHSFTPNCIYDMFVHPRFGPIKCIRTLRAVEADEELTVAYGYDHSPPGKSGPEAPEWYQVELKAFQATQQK
Description: as §1
A fluorescence-based SAHH-coupled assay was applied to study the effect of the compound on methyltransferase activity of PRMT7, NTMT1, SETD7, G9a, NNMT, and SAHH. For PRMT7, the assay was performed in a final well volume of 100 μL: 25 mM Tris (pH = 7.5), 50 mM KCl, 0.01% Triton X-100, 5 μM SAHH, 0.2 μM PRMT7, 3 μM AdoMet, and 15 μM ThioGlo1. After incubation for 10 min with the inhibitor, reactions were initiated by the addition of 60 μM H4-21 peptide, and the reaction was monitored for 15 min. For NTMT1, the assay was performed in a final well volume of 100 μL: 25 mM Tris (pH = 7.5), 50 mM KCl, 0.01% Triton X-100, 5 μM SAHH, 0.1 μM NTMT1, 3 μM AdoMet, and 10 μM ThioGlo4. After incubation for 10 min with the inhibitor, reactions were initiated by the addition of 0.5 μM GPKRIA peptide, and the reaction was monitored for 15 min. For SETD7, the assay was performed in a final well volume of 100 μL: 25 mM potassium phosphate buffer (pH = 7.6), 0.01% Triton X-100, 5 μM SAHH, 1 μM SETD7, 2 μM AdoMet, and 10 μM ThioGlo1. After incubation for 10 min with the inhibitor, reactions were initiated by the addition of 90 μM H3-21 peptide, and the reaction was monitored for 15 min. For G9a, the assay was performed in a final well volume of 100 μL: 25 mM potassium phosphate buffer (pH = 7.6), 1 mM EDTA, 2 mM MgCl2, 0.01% Triton X-100, 5 μM SAHH, 0.1 μM His-G9a, 10 μM AdoMet, and 10 μM ThioGlo4. For NNMT, the assay was performed in a final well volume of 100 μL: 25 mM Tris (pH = 7.5), 50 mM KCl, 0.01% Triton X- 100, 5 μM SAHH, 0.1 μM NNMT, 10 μM AdoMet, and 10 μM ThioGlo1. After incubation for 10 min with the inhibitor, reactions were initiated by the addition of 10 μM nicotinamide, and the reaction was monitored for 18 min. The inhibitors were added at five concentrations: 100, 33.3, 11.1, 3.7, and 1.2 μM.

PRMT1 = PRMT1 (Homo sapiens, UniProt Q99873); test: HotSpot radioisotope 3H-AdoMet methyltransferase assay (Reaction Biology), PRMT1
Protocol: (§3) Future studies will focus on obtaining structural information of II757 bound to PRMTs to inform how to connect to a substrate portion to increase both potency and selectivity for each PRMT.
(§4) Figure 6 Selectivity of II757 against the panel of PRMTs. II757 was tested in 10 doses with threefold serial dilution in the HotSpot methyltransferase assay at reaction biology. TEXT PRINTED IN THE PICTURE: II757: IC50 (nM) PRMT1: 16.4; IC50 (nM) PRMT3: 321; IC50 (nM) PRMT4: 5.05; IC50 (nM) PRMT5/MEP50 Complex: 18.2; IC50 (nM) PRMT5 (C449S)/MEP50: 36.6; IC50 (nM) PRMT6: 30.5; IC50 (nM) PRMT7: 555; IC50 (nM) PRMT8: 32.1

PRMT5/MEP50 Complex = biological target: T2, PRMT5/MEP50 Complex (Homo sapiens, UniProt O14744); test: HotSpot radioisotope 3H-AdoMet methyltransferase assay, PRMT5/MEP50
T2 construct: purchased Reaction Biology
Protocol: as §3, §4

TbPRMT7 = biological target: T3, TbPRMT7 (Trypanosoma brucei brucei, UniProt Q582G4); test: Selectivity SAHH-coupled fluorescence assay, TbPRMT7; settings: at 1.2 μM
T3 construct: made in house
Description: as §1, §2

T3 sequence (Q582G4 whole entry): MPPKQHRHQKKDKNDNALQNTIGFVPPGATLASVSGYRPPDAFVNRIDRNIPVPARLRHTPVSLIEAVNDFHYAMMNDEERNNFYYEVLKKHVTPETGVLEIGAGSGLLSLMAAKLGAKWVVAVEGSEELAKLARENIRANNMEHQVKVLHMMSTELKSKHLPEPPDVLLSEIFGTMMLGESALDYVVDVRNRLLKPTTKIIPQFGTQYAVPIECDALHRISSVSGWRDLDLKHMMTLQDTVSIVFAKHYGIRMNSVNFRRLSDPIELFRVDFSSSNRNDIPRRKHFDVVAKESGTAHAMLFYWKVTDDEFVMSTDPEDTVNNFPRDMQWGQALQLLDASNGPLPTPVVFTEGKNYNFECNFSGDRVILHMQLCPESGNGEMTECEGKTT
PRMT1, sequence (Q99873 whole entry, species assumed): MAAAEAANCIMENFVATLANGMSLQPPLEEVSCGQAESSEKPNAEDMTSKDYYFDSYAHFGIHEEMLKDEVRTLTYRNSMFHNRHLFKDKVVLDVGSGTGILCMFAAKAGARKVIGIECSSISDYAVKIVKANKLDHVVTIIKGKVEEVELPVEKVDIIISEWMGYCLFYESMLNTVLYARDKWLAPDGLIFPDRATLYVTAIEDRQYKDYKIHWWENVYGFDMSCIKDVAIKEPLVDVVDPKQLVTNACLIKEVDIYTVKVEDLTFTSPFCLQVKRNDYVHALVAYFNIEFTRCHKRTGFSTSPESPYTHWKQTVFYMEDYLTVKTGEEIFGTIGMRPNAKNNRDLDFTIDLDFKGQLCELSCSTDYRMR
T2 sequence (O14744 whole entry): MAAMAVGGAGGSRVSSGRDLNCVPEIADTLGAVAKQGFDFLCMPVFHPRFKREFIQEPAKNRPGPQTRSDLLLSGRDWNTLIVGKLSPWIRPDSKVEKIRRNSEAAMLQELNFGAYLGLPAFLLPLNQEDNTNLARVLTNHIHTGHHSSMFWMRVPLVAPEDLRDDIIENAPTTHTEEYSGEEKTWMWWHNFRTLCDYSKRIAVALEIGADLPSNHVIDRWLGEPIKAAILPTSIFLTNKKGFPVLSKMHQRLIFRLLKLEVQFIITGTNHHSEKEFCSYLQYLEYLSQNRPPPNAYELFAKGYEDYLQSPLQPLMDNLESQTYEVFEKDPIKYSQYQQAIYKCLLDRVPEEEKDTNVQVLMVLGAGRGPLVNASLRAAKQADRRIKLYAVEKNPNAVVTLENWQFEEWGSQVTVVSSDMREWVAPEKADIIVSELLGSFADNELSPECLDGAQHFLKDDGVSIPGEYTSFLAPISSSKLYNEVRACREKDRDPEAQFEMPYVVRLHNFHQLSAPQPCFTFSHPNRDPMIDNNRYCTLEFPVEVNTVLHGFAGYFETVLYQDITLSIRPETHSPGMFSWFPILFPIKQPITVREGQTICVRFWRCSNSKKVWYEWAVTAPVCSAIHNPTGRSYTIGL
T2 sequence (Q9BQA1 whole entry partner): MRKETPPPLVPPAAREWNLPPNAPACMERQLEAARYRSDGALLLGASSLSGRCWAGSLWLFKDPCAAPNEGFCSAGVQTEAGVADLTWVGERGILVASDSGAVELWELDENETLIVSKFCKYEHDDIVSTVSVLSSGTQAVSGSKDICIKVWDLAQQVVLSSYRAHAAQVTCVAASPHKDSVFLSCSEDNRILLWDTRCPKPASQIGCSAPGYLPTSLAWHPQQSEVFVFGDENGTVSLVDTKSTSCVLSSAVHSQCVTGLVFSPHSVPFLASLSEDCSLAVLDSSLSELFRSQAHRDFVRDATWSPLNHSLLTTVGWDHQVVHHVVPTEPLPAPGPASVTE

`N=C(NCCCSC[C@H]1O[C@@H](n2cnc3c(N)ncnc32)[C@H](O)[C@@H]1O)Nc1cccc(Br)c1` [Compound 6l, 1-(3-((((2S,3S,4R,5R)-5-(6-amino-9H-purin-9-yl)-3,4-dihydroxytetrahydrofuran-2-yl)methyl)thio)propyl)-3-(3-bromophenyl)guanidine] was tested, and the “selectivity over NNMT” value (NNMT) was “over 1000 fold”, the “selectivity over SETD7” value (SETD7) was “over 1000 fold” and the IC50 (PRMT1) was 16.4 nM. The IC50 (PRMT5/MEP50 Complex) was 18.2 nM and the “activity against PRMT7” value (TbPRMT7) was “about 30%”.
